In patent US20110098177A1, “METHODS AND COMPOSITIONS OF PLANT MICRONUTRIENTS” (NOVUS INTERNATIONAL INC., priority 2006, published 2011):

Columns and labels:
[1] = tested on: Patriot bell pepper plants; test: Marketable yield, open-field bell pepper (Examples 7-10); type: in vivo; details: open field; lb/acre/season: BIOX-Z 1.3, Cu 6.7, M 23.0, Fe 3.2, INC 4.0, INZ 0.6, CM 10.0, GZ 1.0, GF 4.0, EDZ 1.4, EDM 23.0
How it was run: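 Open-field 2008 trial, Balm FL; 'Tygress' tomato and 'Patriot' pepper transplants on drip-fed raised beds. Foliar micronutrient sprays at 3 and 5 WAT (BIOX-CM at 4 and 5), 60 gal/acre with surfactant. Youngest mature leaves sampled 6 WAT; RCBD, 5 replications, Fisher's LSD 5%.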

[2] = tested on: Tygress tomato plants; test: Foliar nutrient concentration 2 weeks after treatment, greenhouse tomato (Examples 4-6); type: in vivo; details: for Foliar Zn concentration: tomato leaves 2 weeks after Zn treatment; for Foliar Mn concentration: tomato leaves 2 weeks after Mn treatment
How it was run: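 Tygress tomato in 2-gallon pots of micronutrient-poor medium (negligible Fe, Zn, Mn, Cu) in greenhouse; foliar treatments at 5 WAT in 200 mL/plant water with non-ionic surfactant. Newest non-applied leaves analysed 2 weeks before and after treatment; marketable fruit harvested three times from 10 WAT, graded. RCBD, 6 replications, LSD 5%.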

[3] = Zn 0.4 lb/acre, 2 weeks after Zn treatment
[4] = Mn 0.31 lb/acre, 2 weeks after Mn treatment
[5] = Mn 0.62 lb/acre, 2 weeks after Mn treatment
[6] = Mn 1.23 lb/acre, 2 weeks after Mn treatment
[7] = Mn 2.46 lb/acre, 2 weeks after Mn treatment
[8] = Zn 0.1 lb/acre, 2 weeks after Zn treatment
[9] = Zn 0.2 lb/acre, 2 weeks after Zn treatment
[10] = Zn 0.8 lb/acre, 2 weeks after Zn treatment

Compound: CSCCC(O)C(=O)[O-].CSCCC(O)C(=O)[O-].[Cu+2] (stereo not drawn) [BIOX-Cu, Cu-HMTBA]
- Marketable yield, Bell Pepper [1]: 7.8 ton/acre

Compound: EDTA chelated zinc [BIOX-EDZ]
- B concentration in tomato leaves [2, 3]: 21 ppm
- Ca concentration in tomato leaves [2, 3]: 0.6%
- Cu concentration in tomato leaves [2, 3]: 7 ppm
- Fe concentration in tomato leaves [2, 3]: 95 ppm
- K concentration in tomato leaves [2, 3]: 3.6%
- Mg concentration in tomato leaves [2, 3]: 0.3%
- Mn concentration in tomato leaves [2, 3]: 54 ppm
- N concentration in tomato leaves [2, 3]: 3.6%
- P concentration in tomato leaves [2, 3]: 0.5%
- Foliar Zn concentration ([2]; Zn 0.4 lb/acre): 214.bc ppm
- Marketable yield, Bell Pepper [1]: 8.1 ton/acre

Compound: CSCCC(O)C(=O)[O-].CSCCC(O)C(=O)[O-].[Mn+2] (stereo not drawn) [BIOX-M, Mn-HMTBA]
- B concentration in tomato leaves [2, 4]: 22 ppm
- Ca concentration in tomato leaves [2, 4]: 0.6%
- Cu concentration in tomato leaves [2, 4]: 5 ppm
- Fe concentration in tomato leaves [2, 4]: 109 ppm
- K concentration in tomato leaves [2, 4]: 3.1%
- Mg concentration in tomato leaves [2, 4]: 0.3%
- N concentration in tomato leaves [2, 4]: 3.5%
- P concentration in tomato leaves [2, 4]: 0.4%
- Zn concentration in tomato leaves [2, 4]: 31 ppm
- Foliar Mn concentration ([2]; Mn 0.31 lb/acre): 22.9 b ppm
- B concentration in tomato leaves [2, 5]: 24 ppm
- Ca concentration in tomato leaves [2, 5]: 0.6%
- Cu concentration in tomato leaves [2, 5]: 5 ppm
- Fe concentration in tomato leaves [2, 5]: 110 ppm
- K concentration in tomato leaves [2, 5]: 3.2%
- Mg concentration in tomato leaves [2, 5]: 0.3%
- N concentration in tomato leaves [2, 5]: 3.5%
- P concentration in tomato leaves [2, 5]: 0.5%
- Zn concentration in tomato leaves [2, 5]: 32 ppm
- Foliar Mn concentration ([2]; Mn 0.62 lb/acre): 29.5 b ppm
- B concentration in tomato leaves [2, 6]: 25 ppm
- Ca concentration in tomato leaves [2, 6]: 0.6%
- Cu concentration in tomato leaves [2, 6]: 5 ppm
- Fe concentration in tomato leaves [2, 6]: 112 ppm
- K concentration in tomato leaves [2, 6]: 3.1%
- Mg concentration in tomato leaves [2, 6]: 0.3%
- N concentration in tomato leaves [2, 6]: 3.5%
- P concentration in tomato leaves [2, 6]: 0.5%
- Zn concentration in tomato leaves [2, 6]: 28 ppm
- Foliar Mn concentration ([2]; Mn 1.23 lb/acre): 60.6 a ppm
- B concentration in tomato leaves [2, 7]: 23 ppm
- Ca concentration in tomato leaves [2, 7]: 0.6%
- Cu concentration in tomato leaves [2, 7]: 5 ppm
- Fe concentration in tomato leaves [2, 7]: 114 ppm
- K concentration in tomato leaves [2, 7]: 3.2%
- Mg concentration in tomato leaves [2, 7]: 0.3%
- N concentration in tomato leaves [2, 7]: 3.6%
- P concentration in tomato leaves [2, 7]: 0.4%
- Zn concentration in tomato leaves [2, 7]: 33 ppm
- Foliar Mn concentration ([2]; Mn 2.46 lb/acre): 69.2 a ppm
- Marketable yield, Bell Pepper [1]: 6.3 ton/acre

Compound: CSCCC(O)C(=O)[O-].CSCCC(O)C(=O)[O-].[Zn+2] (stereo not drawn) [BIOX-Z, Zn-HMTBA]
- Foliar Zn concentration compared with control (in words) ([2]; 0.8 lb/acre, 2 weeks after application): significantly higher than control
- B concentration in tomato leaves [2, 8]: 25 ppm
- Ca concentration in tomato leaves [2, 8]: 0.6%
- Cu concentration in tomato leaves [2, 8]: 8 ppm
- Fe concentration in tomato leaves [2, 8]: 98 ppm
- K concentration in tomato leaves [2, 8]: 3.5%
- Mg concentration in tomato leaves [2, 8]: 0.3%
- Mn concentration in tomato leaves [2, 8]: 55 ppm
- N concentration in tomato leaves [2, 8]: 3.6%
- P concentration in tomato leaves [2, 8]: 0.5%
- Foliar Zn concentration ([2]; Zn 0.1 lb/acre): 86 bc ppm
- B concentration in tomato leaves [2, 9]: 27 ppm
- Ca concentration in tomato leaves [2, 9]: 0.6%
- Cu concentration in tomato leaves [2, 9]: 6 ppm
- Fe concentration in tomato leaves [2, 9]: 88 ppm
- K concentration in tomato leaves [2, 9]: 3.7%
- Mg concentration in tomato leaves [2, 9]: 0.3%
- Mn concentration in tomato leaves [2, 9]: 56 ppm
- N concentration in tomato leaves [2, 9]: 3.3%
- P concentration in tomato leaves [2, 9]: 0.5%
- Foliar Zn concentration ([2]; Zn 0.2 lb/acre): 112 bc ppm
- B concentration in tomato leaves [2, 3]: 28 ppm
- Ca concentration in tomato leaves [2, 3]: 0.6%
- Cu concentration in tomato leaves [2, 3]: 6 ppm
- Fe concentration in tomato leaves [2, 3]: 88 ppm
- K concentration in tomato leaves [2, 3]: 3.5%
- Mg concentration in tomato leaves [2, 3]: 0.3%
- Mn concentration in tomato leaves [2, 3]: 59 ppm
- N concentration in tomato leaves [2, 3]: 3.4%
- P concentration in tomato leaves [2, 3]: 0.5%
- Foliar Zn concentration ([2]; Zn 0.4 lb/acre): 128 bc ppm
- B concentration in tomato leaves [2, 10]: 25 ppm
- Ca concentration in tomato leaves [2, 10]: 0.5%
- Cu concentration in tomato leaves [2, 10]: 4 ppm
- Fe concentration in tomato leaves [2, 10]: 93 ppm
- K concentration in tomato leaves [2, 10]: 3.4%
- Mg concentration in tomato leaves [2, 10]: 0.3%
- Mn concentration in tomato leaves [2, 10]: 54 ppm
- N concentration in tomato leaves [2, 10]: 3.5%
- P concentration in tomato leaves [2, 10]: 0.5%
- Foliar Zn concentration ([2]; Zn 0.8 lb/acre): 500 ab ppm
- Marketable yield, Bell Pepper [1]: 8.4 ton/acre

Compound: Fe-HMTBA [BIOX-Fe]
- Marketable yield, Bell Pepper [1]: 7.2 ton/acre
